Source: patent US12479825B2, “Melanocortin subtype-2 receptor (MC2R) antagonists and uses thereof” (Crinetics Pharmaceuticals, Inc., priority 2019, dated 2025)

Target: T1, hMC2 receptor (Homo sapiens, UniProt Q01718)
T1 construct: host or cells: CRE-bla-CHO-K1 cells, crude membrane fraction
Assay: hMC2 membrane binding assay ([125I]ACTH (1-39) Tyr23, SPA)
Settings: crude hMC2R membranes from CRE-bla-CHO-K1 cells expressing hMC2 receptor and hMRAP; 0.2 nM [125I]ACTH (1-39) Tyr23; 1.5 hours at room temperature; read-out: MC2R binding potency
Method: Crude membrane fractions are prepared from CRE-bla-CHO-K1 cells stably expressing hMC2 receptor and hMRAP accessory protein (Thermo Fisher). The cells are grown to 85-100% confluence on standard tissue culture dishes in GlutaMax DMEM growth media (Gibco) with following additives: 10% dialyzed FBS (Gemini), 0.1 mM NEAA (Gibco), 25 mM HEPES (Gibco), 5 μg/mL blasticidin (Goldbio), 100 μg/mL zeocin (Invitrogen), 600 μg/mL hygromycin (Goldbio). To prepare membranes, cells are scraped and collected in 1× Dulbecco's phosphate buffered saline (Corning) and then pelleted at 1000 RPM's. The cell pellet is reconstituted in membrane preparation buffer (20 mM HEPES, 6 mM MgCl2 and 1 mM EGTA, protease inhibitor tablets (Pierce) adjusted to pH 7.4), homogenized using a dounce homogenizer, and the resulting membrane fraction is pelleted by centrifugation at 12,000 RPM's. The membrane pellet is resuspended in membrane preparation buffer, snap freezed and stored at −80° C. for later use.
The hMC2 membrane binding assay utilizes the following components: radiolabel [^125I]ACTH (1-39) Tyr23 (PerkinElmer), wheat germ agglutinin coated PVT SPA beads (PerkinElmer), crude hMC2R membranes, and compounds. Briefly hMC2R membranes are incubated with SPA beads in binding assay buffer (50 mM HEPES, 5 mM MgCl2, 1 mM CaCl2, 0.2% BSA, protease inhibitor tablets (Pierce) adjusted to pH7.4) prior to assay initiation. A dose response of compound (the final concentration of compound is typically 0-10,000 nM), SPA membranes, and [^125I]ACTH (1-39) Tyr23 at a final concentration of 0.2 nM is plated in a 96-well assay plate and allowed to incubate 1.5 hours at room temperature. Assay plates are read using a Top Count NXT and Ki values for compounds are determined using a GraphPad Prism 6 non-linear regression analysis.

T1 sequence (Q01718 whole entry): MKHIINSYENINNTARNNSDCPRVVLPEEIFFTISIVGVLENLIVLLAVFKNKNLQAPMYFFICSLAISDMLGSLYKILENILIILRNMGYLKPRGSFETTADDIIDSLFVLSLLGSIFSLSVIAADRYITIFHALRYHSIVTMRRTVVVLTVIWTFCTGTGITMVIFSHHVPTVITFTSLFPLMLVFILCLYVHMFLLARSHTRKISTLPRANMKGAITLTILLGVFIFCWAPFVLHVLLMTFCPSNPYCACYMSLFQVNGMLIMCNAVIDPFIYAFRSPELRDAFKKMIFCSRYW
T1 sequence (Q8TCY5 whole entry partner): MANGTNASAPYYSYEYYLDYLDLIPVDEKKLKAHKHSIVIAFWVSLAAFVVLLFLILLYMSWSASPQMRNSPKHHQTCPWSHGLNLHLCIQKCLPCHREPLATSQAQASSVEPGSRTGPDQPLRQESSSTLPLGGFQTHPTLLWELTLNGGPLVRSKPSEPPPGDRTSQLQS

Ki [µM]	Compound
< 0.01	CCOc1ccc(C(=O)N2CCN(c3ccc(-c4cccnc4OCC)nc3O[C@@H]3CCNC3)[C@H](CC)C2)c(C(F)(F)F)n1 [1-5, 2′-ethoxy-5-[(2R)-4-[6-ethoxy-2-(trifluoromethyl)pyridine-3-carbonyl]-2-ethylpiperazin-1-yl]-6-[(3R)-pyrrolidin-3-yloxy]-2,3′-bipyridine]
0.01 to 0.1	CCOc1ncccc1-c1ccc(N2CC[C@H](Oc3ccc(C(F)(F)F)cc3C#N)C[C@H]2C2CC2)c(C(=O)N[C@@H]2CCNC2)n1 (racemic) [2-3, 5-[trans*4-[2-cyano-4-(trifluoromethyl)phenoxy]-2-cyclopropylpiperidin-1-yl]-2′-ethoxy-N-[(3R)-pyrrolidin-3-yl]-[2,3′-bipyridine]-6-carboxamide]
< 0.01	CCOc1ccc(C(=O)N2CCN(c3ccc(-c4cccnc4OCC)nc3OC[C@H](C)N)[C@H](CC)C2)c(C(F)(F)F)n1 [1-20, (2S)-1-({2′-ethoxy-5-[(2R)-4-[6-ethoxy-2-(trifluoromethyl)pyridine-3-carbonyl]-2-ethylpiperazin-1-yl]-[2,3′-bipyridin]-6-yl}oxy)propan-2-amine]
< 0.01	CCOc1ncccc1-c1ccc(N2CCN(C(=O)c3ccc(F)cc3C(F)F)C[C@H]2CC)c(OCCN)n1 [1-13, 2-({5-[(2R)-4-[2-(difluoromethyl)-4-fluorobenzoyl]-2-ethylpiperazin-1-yl]-2′-ethoxy-[2,3′-bipyridin]-6-yl}oxy)ethan-1-amine]
< 0.01	CCOc1ncccc1-c1ccc(N2CC[C@H](Oc3ccc(F)cc3C#N)C[C@@H]2C2CC2)c(C(=O)N[C@@H]2CCN(C)C2)n1 (mixture of isomers) [2-25, 5-[cis-4-(2-cyano-4-fluorophenoxy)-2-cyclopropylpiperidin-1-yl]-2′-ethoxy-N-[(3R)-1-methylpyrrolidin-3-yl]-[2,3′-bipyridine]-6-carboxamide]
< 0.01	CCOc1ncccc1-c1ccc(N2CCN(C(=O)N3CCC[C@H]3C(F)(F)F)C[C@H]2CC)c(O[C@@H]2CCNC2)n1 [1-8, 2′-ethoxy-5-[(2R)-2-ethyl-4-[(2S)-2-(trifluoromethyl)pyrrolidine-1-carbonyl]piperazin-1-yl]-6-[(3R)-pyrrolidin-3-yloxy]-2,3′-bipyridine]
< 0.01	CCOc1ncccc1-c1ccc(N2CCN(C(=O)c3ccc(F)cc3Cl)C[C@H]2CC)c(OCCNC)n1 [1-29, [2-({5-[(2R)-4-(2-chloro-4-fluorobenzoyl)-2-ethylpiperazin-1-yl]-2′-ethoxy-[2,3′-bipyridin]-6-yl}oxy)ethyl](methyl)amine]
0.01 to 0.1	CCOc1ncccc1-c1ccc(N2CC[C@H](Oc3ccc(C(F)(F)F)cc3C#N)C[C@@H]2CC)c(C(=O)N[C@@H]2CCN(C)C2)n1 (single isomer, unassigned) [2-12]
< 0.01	CCOc1ncccc1-c1ccc(N2CC[C@H](Sc3ccccc3C(F)(F)F)C[C@H]2CC)c(C(=O)N[C@@H]2CCN(C)C2)n1 (racemic) [5-1, rac-2′-ethoxy-5-[(2R,4S)-2-ethyl-4-{[2-(trifluoromethyl)phenyl]sulfanyl}piperidin-1-yl]-N-[(3R)-1-methylpyrrolidin-3-yl]-[2,3′-bipyridine]-6-carboxamide]
< 0.01	CCOc1ncccc1-c1ccc(C2CCN(c3ccc(C(F)(F)F)nc3C#N)CC2)c(OCCNC)n1 [3-2, 3-(4-{2′-ethoxy-6-[2-(methylamino)ethoxy]-[2,3′-bipyridin]-5-yl}piperidin-1-yl)-6-(trifluoromethyl)pyridine-2-carbonitrile]
< 0.01	CCOc1ncccc1-c1ccc(N2CC[C@@H](Oc3ccc(C(F)(F)F)cc3C#N)C[C@H]2CC)c(C(=O)N[C@@H]2CCN(C)C2)n1 (single isomer, unassigned) [2-11]
< 0.01	CCOc1ncccc1-c1ccc(N2CCN(C(=O)N3CCC[C@H]3C(F)(F)F)C[C@H]2CC)c(OCCN)n1 [1-14, 2-({2′-ethoxy-5-[(2R)-2-ethyl-4-[(2S)-2-(trifluoromethyl)pyrrolidine-1-carbonyl]piperazin-1-yl]-[2,3′-bipyridin]-6-yl}oxy)ethan-1-amine]
0.01 to 0.1	CCOc1ncccc1-c1ccc(N2CC[C@H](Oc3ccc(Cl)cc3C(F)(F)F)C[C@@H]2CC)c(C(=O)N[C@@H]2CCN(C)C2)n1 (single isomer, unassigned) [2-10, 5-[(2S,4S)*-4-[4-chloro-2-(trifluoromethyl)phenoxy]-2-ethylpiperidin-1-yl]-2′-ethoxy-N-[(3R)-1-methylpyrrolidin-3-yl]-[2,3′-bipyridine]-6-carboxamide]
< 0.01	CCOc1ncccc1-c1ccc(N2CC[C@@H](Oc3ccc(Cl)nc3C(F)(F)F)C[C@H]2C2CC2)c(C(=O)N[C@@H]2CCN(C)C2)n1 (racemic) [2-8, 5-[cis*-4-{[6-chloro-2-(trifluoromethyl)pyridin-3-yl]oxy}-2-cyclopropylpiperidin-1-yl]-2′-ethoxy-N-[(3R)-1-methylpyrrolidin-3-yl]-[2,3′-bipyridine]-6-carboxamide]
< 0.01	CCOc1ccccc1-c1ccc(N2CC[C@@H](Oc3ccc(C(F)(F)F)nc3C#N)C[C@H]2C)c(C(=O)N[C@@H]2CCN(C)C2)n1 (racemic) [2-23, 3-(cis*-4-{[2-cyano-6-(trifluoromethyl)pyridin-3-yl]oxy}-2-methylpiperidin-1-yl)-6-(2-ethoxyphenyl)-N-[(3R)-1-methylpyrrolidin-3-yl]pyridine-2-carboxamide]
< 0.01	CCOc1ncccc1-c1ccc(N2CC[C@@H](Oc3ccc(C(F)(F)F)cc3C#N)C[C@H]2CC)c(C(=O)N[C@@H]2CCN(C)C2)n1 (racemic) [2-2, 5-[(cis*-4-[2-cyano-4-(trifluoromethyl)phenoxy]-2-ethylpiperidin-1-yl]-2′-ethoxy-N-[(3R)-1-methylpyrrolidin-3-yl]-[2,3′-bipyridine]-6-carboxamide]
< 0.01	CCOc1ccc(C(=O)N2CCN(c3ccc(-c4cccnc4OCC)nc3OCCN)[C@H](CC)C2)c(C(F)(F)F)n1 [1-12, 2-({2′-ethoxy-5-[(2R)-4-[6-ethoxy-2-(trifluoromethyl)pyridine-3-carbonyl]-2-ethylpiperazin-1-yl]-[2,3′-bipyridin]-6-yl}oxy)ethan-1-amine]
< 0.01	CCOc1ncccc1-c1ccc(N2CCN(C(=O)c3ccc(F)cc3C(F)F)C[C@H]2CC)c(OCCNC)n1 [1-10, [2-({5-[(2R)-4-[2-(difluoromethyl)-4-fluorobenzoyl]-2-ethylpiperazin-1-yl]-2′-ethoxy-[2,3′-bipyridin]-6-yl}oxy)ethyl](methyl)amine]
< 0.01	CCOc1ncccc1-c1ccc(N2CC[C@H](Oc3ccc(C(F)(F)F)nc3C#N)C[C@@H]2C2CC2)c(C(=O)N[C@@H]2CCN(C)C2)n1 (mixture of isomers) [2-14, 5-(cis-4-{[2-cyano-6-(trifluoromethyl)pyridin-3-yl]oxy}-2-cyclopropylpiperidin-1-yl)-2′-ethoxy-N-[(3R)-1-methylpyrrolidin-3-yl]-[2,3′-bipyridine]-6-carboxamide]
< 0.01	CCOc1ncccc1-c1ccc(N2CCN(C(=O)c3ccc(Cl)cc3C(F)(F)F)C[C@H]2CC)c(OCCN)n1 [1-16, 2-({5-[(2R)-4-[4-chloro-2-(trifluoromethyl)benzoyl]-2-ethylpiperazin-1-yl]-2′-ethoxy-[2,3′-bipyridin]-6-yl}oxy)ethan-1-amine]
< 0.01	CCOc1ncccc1-c1ccc(N2CC[C@H](Oc3ccc(C)cc3C#N)C[C@@H]2CC)c(C(=O)N[C@@H]2CCN(C)C2)n1 (mixture of isomers) [2-17, 5-[cis-4-(2-cyano-4-methylphenoxy)-2-ethylpiperidin-1-yl]-2′-ethoxy-N-[(3R)-1-methylpyrrolidin-3-yl]-[2,3′-bipyridine]-6-carboxamide]
< 0.01	CCOc1ncccc1-c1ccc(N2CC[C@@H](Oc3ccc(C(F)(F)F)cc3C#N)C[C@H]2C2CC2)c(C(=O)N[C@@H]2CCNC2)n1 (racemic) [2-5, 5-[cis*4-[2-cyano-4-(trifluoromethyl)phenoxy]-2-cyclopropylpiperidin-1-yl]-2′-ethoxy-N-[(3R)-pyrrolidin-3-yl]-[2,3′-bipyridine]-6-carboxamide]
< 0.01	CCOc1ncccc1-c1ccc(N2CC[C@H](Oc3ccc(C)cc3C#N)C[C@@H]2C2CC2)c(C(=O)N[C@@H]2CCN(C)C2)n1 (mixture of isomers) [2-16, 5-[cis-4-(2-cyano-4-methylphenoxy)-2-cyclopropylpiperidin-1-yl]-2′-ethoxy-N-[(3R)-1-methylpyrrolidin-3-yl]-[2,3′-bipyridine]-6-carboxamide]

Compound	Ki [µM]
CCOc1ncccc1-c1ccc(N2CC[C@H](Oc3ccc(C(F)(F)F)nc3C#N)C[C@@H]2CC)c(C(=O)N[C@@H]2CN3CCC2CC3)n1 (mixture of isomers) [2-19, N-[(3S)-1-azabicyclo[2.2.2]octan-3-yl]-5-(cis-4-{[2-cyano-6-(trifluoromethyl)pyridin-3-yl]oxy}-2-ethylpiperidin-1-yl)-2′-ethoxy-[2,3′-bipyridine]-6-carboxamide]	< 0.01
